Tested on: rodent lifetime carcinogenesis bioassay, tumor incidence TD50
Assay: carcinogenic potency in animals, long-term in vivo studies, CPDB compilation (AID 1745844)
Conditions: in feed

SMILES: COc1ccc(N)cc1N
- TD50 (mouse, strain B6C3F1, females, site: all sites, lesion: lymphoma, dosed 78 weeks, study length 96 weeks): 262 mg/kg/day
- TD50 (mouse, strain B6C3F1, females, site: any site (literature study), lesion: several types, types named in the paper, dosed 78 weeks, study length 96 weeks): 311 mg/kg/day
- TD50 (mouse, strain B6C3F1, females, site: liver, lesion: hepatocellular adenoma + hepatocellular carcinoma + neoplastic nodule, dosed 78 weeks, study length 96 weeks): 7350 mg/kg/day
- TD50 (mouse, strain B6C3F1, females, site: lung, lesion: alveolar/bronchiolar adenoma + alveolar/bronchiolar carcinoma, dosed 78 weeks, study length 96 weeks): 10900 mg/kg/day
- TD50 (mouse, strain B6C3F1, females, site: thyroid gland, lesion: follicular-cell adenoma + follicular-cell carcinoma, dosed 78 weeks, study length 96 weeks): 1060 mg/kg/day
- TD50 (mouse, strain B6C3F1, females, site: thyroid gland, lesion: follicular-cell adenoma, dosed 78 weeks, study length 96 weeks): 1450 mg/kg/day
- TD50 (mouse, strain B6C3F1, males, site: any site (literature study), lesion: several types, types named in the paper, dosed 78 weeks, study length 96 weeks): 354 mg/kg/day
- TD50 (mouse, strain B6C3F1, males, site: liver, lesion: hepatocellular adenoma + hepatocellular carcinoma + neoplastic nodule, dosed 78 weeks, study length 96 weeks): 926 mg/kg/day
- TD50 (mouse, strain B6C3F1, males, site: lung, lesion: alveolar/bronchiolar adenoma + alveolar/bronchiolar carcinoma, dosed 78 weeks, study length 96 weeks): 2560 mg/kg/day
- TD50 (mouse, strain B6C3F1, males, site: thyroid gland, lesion: follicular-cell adenoma, dosed 78 weeks, study length 96 weeks): 791 mg/kg/day
- TD50 (rat, strain Fischer 344, females, site: Zymbal's gland, lesion: sebaceous adenocarcinoma, dosed 78 weeks, study length 107 weeks): 665 mg/kg/day
- TD50 (rat, strain Fischer 344, females, site: any site (literature study), lesion: several types, types named in the paper, dosed 78 weeks, study length 107 weeks): 181 mg/kg/day
- TD50 (rat, strain Fischer 344, females, site: any site (literature study), lesion: several types, types named in the paper, dosed 83 weeks, study length 86 weeks): 67.3 mg/kg/day
- TD50 (rat, strain Fischer 344, females, site: clitoral gland + uterus, endometrium, lesion: carcinoma, NOS + adenocarcinoma, NOS + papillary carcinoma, dosed 78 weeks, study length 107 weeks): 408 mg/kg/day
- TD50 (rat, strain Fischer 344, females, site: clitoral gland, lesion: adenoma, NOS + carcinoma, NOS + cystadenoma, NOS + squamous-cell carcinoma + squamous-cell papilloma, dosed 78 weeks, study length 107 weeks): 416 mg/kg/day
- TD50 (rat, strain Fischer 344, females, site: clitoral gland, lesion: several types, types named in the paper, dosed 83 weeks, study length 86 weeks): 113 mg/kg/day
- TD50 (rat, strain Fischer 344, females, site: clitoral gland, lesion: squamous-cell carcinoma, sebaceous, dosed 83 weeks, study length 86 weeks): 162 mg/kg/day
- TD50 (rat, strain Fischer 344, females, site: liver, lesion: hepatocellular adenoma + hepatocellular carcinoma + neoplastic nodule, dosed 78 weeks, study length 107 weeks): 14500 mg/kg/day
- TD50 (rat, strain Fischer 344, females, site: mammary gland, lesion: several types, types named in the paper, dosed 83 weeks, study length 86 weeks): 1290 mg/kg/day
- TD50 (rat, strain Fischer 344, females, site: thyroid gland + Zymbal's gland, lesion: adenocarcinoma, NOS + follicular-cell carcinoma + papillary cystadenocarcinoma, NOS + sebaceous adenocarcinoma, dosed 78 weeks, study length 107 weeks): 301 mg/kg/day
- TD50 (rat, strain Fischer 344, females, site: thyroid gland, lesion: adenocarcinoma, NOS + follicular-cell carcinoma + papillary cystadenocarcinoma, NOS, dosed 78 weeks, study length 107 weeks): 425 mg/kg/day
- TD50 (rat, strain Fischer 344, females, site: thyroid gland, lesion: follicular-cell adenoma, dosed 83 weeks, study length 86 weeks): 296 mg/kg/day
- TD50 (rat, strain Fischer 344, females, site: thyroid gland, lesion: several types, types named in the paper, dosed 83 weeks, study length 86 weeks): 162 mg/kg/day
- TD50 (rat, strain Fischer 344, males, site: any site (literature study), lesion: several types, types named in the paper, dosed 78 weeks, study length 107 weeks): 135 mg/kg/day
- TD50 (rat, strain Fischer 344, males, site: ear canal + ear + Zymbal's gland, lesion: sebaceous adenocarcinoma + squamous-cell carcinoma, dosed 78 weeks, study length 107 weeks): 709 mg/kg/day
- TD50 (rat, strain Fischer 344, males, site: ear canal + ear + preputial gland + skin + thyroid gland + Zymbal's gland, lesion: sebaceous adenocarcinoma + squamous-cell carcinoma + adenoma, NOS + carcinoma, NOS + cystadenoma, NOS + papillary adenoma + basal-ce, dosed 78 weeks, study length 107 weeks): 72.6 mg/kg/day
- TD50 (rat, strain Fischer 344, males, site: liver, lesion: hepatocellular adenoma + hepatocellular carcinoma + neoplastic nodule, dosed 78 weeks, study length 107 weeks): 1610 mg/kg/day
- TD50 (rat, strain Fischer 344, males, site: preputial gland, lesion: adenoma, NOS + carcinoma, NOS + cystadenoma, NOS + papillary adenoma, dosed 78 weeks, study length 107 weeks): 351 mg/kg/day
- TD50 (rat, strain Fischer 344, males, site: preputial gland, lesion: adenoma, NOS + cystadenoma, NOS + papillary adenoma, dosed 78 weeks, study length 107 weeks): 530 mg/kg/day
- TD50 (rat, strain Fischer 344, males, site: skin, lesion: basal-cell carcinoma + sebaceous adenocarcinoma + squamous-cell carcinoma, dosed 78 weeks, study length 107 weeks): 358 mg/kg/day
- TD50 (rat, strain Fischer 344, males, site: thyroid gland, lesion: adenocarcinoma, NOS + follicular-cell carcinoma + papillary adenocarcinoma + papillary cystadenocarcinoma, NOS, dosed 78 weeks, study length 107 weeks): 192 mg/kg/day
- TD50 (rat, strain Fischer 344, males, site: thyroid gland, lesion: adenocarcinoma, NOS, dosed 78 weeks, study length 107 weeks): 252 mg/kg/day
- TD50 (rat, strain Fischer 344, males, site: thyroid gland, lesion: c-cell adenoma + c-cell carcinoma, dosed 78 weeks, study length 107 weeks): 319 mg/kg/day

— PubChem BioAssay AID1745844 (Carcinogenic Potency Database (CPDB), 2022)
